# Laboratory results as given in US20100056391A1, “INTEGRATED SCREENING ASSAYS AND METHODS OF USE” (Trustees of Princeton University, priority 2006, published 2010).
# System: Dictyostelium cells
# Assay: Development of Dictyostelium cells in the presence of AFC (time-lapse imaging, FIG. 7)
# Format: cell-based
# Excerpt: Accordingly, some embodiments of the present invention are directed to assays testing the effects of AFC on Dictyostelium cells.
smiles,measurement,setting,value
"CC(=O)N[C@@H](CSC/C=C(\C)CC/C=C(\C)CCC=C(C)C)C(=O)O [AFC, N-acetyl-farnsyl cysteine]",ability of the cells to form fruiting bodies,Dictyostelium cells treated with AFC,inhibited
same,mechanism by which individual cells aggregate into multicellular clusters (head-to-tail streaming while migrating),"compared with untreated cells, which line up head-to-tail and form streams, FIG. 7, 6.5, 8.5 and 9.25 hours","migrate, but do not line up head-to-tail"
